Experimental findings from patent US11046680B1, “Heteroaryl-substituted triazoles as APJ receptor agonists” (priority 2016, dated 2021) are described below.

As usually defined, the pEC50 is the negative decadic logarithm of the EC50, by convention in mol/L.

pEC50: −log10 of the molar value.

human APJ receptor, sequence (P35414 whole entry): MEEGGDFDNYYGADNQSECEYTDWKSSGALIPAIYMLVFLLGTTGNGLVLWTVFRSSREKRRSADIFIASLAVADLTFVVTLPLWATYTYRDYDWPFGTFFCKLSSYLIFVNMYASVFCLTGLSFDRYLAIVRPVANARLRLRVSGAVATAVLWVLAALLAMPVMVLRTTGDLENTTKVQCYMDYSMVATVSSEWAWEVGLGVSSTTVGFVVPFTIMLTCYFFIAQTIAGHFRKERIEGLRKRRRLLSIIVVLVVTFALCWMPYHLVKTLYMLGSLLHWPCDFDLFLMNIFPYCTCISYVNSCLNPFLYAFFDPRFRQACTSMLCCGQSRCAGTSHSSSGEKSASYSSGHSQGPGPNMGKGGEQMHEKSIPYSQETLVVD

The target of the experiment is human APJ receptor (Homo sapiens (Human), UniProt P35414). Briefly: biochemical. Format: biochemical. The conditions noted are these: [35S]GTPγS binding, CHO membranes expressing human APJ receptor; read-out: Activity hAPJ SPA EC50 IP. A digest of the protocol:
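GTPγS binding on membranes from CHO cells stably expressing FLAG-tagged human APJ, with optimized GDP, MgCl2 and NaCl; incubated 90 min at RT before imaging read-out.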
On the technique in general: GTPγS resists hydrolysis and so accumulates on activated G proteins.
Consider `COc1cccc(OC)c1-n1c(NS(=O)(=O)[C@H](C)Cc2ncc(F)cn2)nnc1-c1nc(C)cs1` (single isomer, unassigned) [Example 102.0, (R)-N-(4-(2,6-Dimethoxyphenyl)-5-(4-methylthiazol-2-yl)-4H-1,2,4-triazol-3-yl)-1-(5-fluoropyrimidin-2-yl)propane-2-sulfonamide or (S)-N-(4-(2,6-dimethoxyphenyl)-5-(4-methylthiazol-2-yl)-4H-1,2,4-triazol-3-yl)-1-(5-fluoropyrimidin-2-yl)propane-2-sulfonamide], for which the pEC50 was 8.39.
Turning to `COc1ccccc1-n1c(NS(=O)(=O)CCc2ccc(Cl)cc2)nnc1-c1cccs1` [Example 236.0, 2-(4-chlorophenyl)-N-(4-(2-methoxyphenyl)-5-(thiophen-2-yl)-4H-1,2,4-triazol-3-yl)ethanesulfonamide], the pEC50 is 6.92.
`COc1cccc(OC)c1-n1c(NS(=O)(=O)[C@@H](C)[C@H](C)c2ncc(C#N)cn2)nnc1-c1ccn(C(F)F)n1` [Example 224.0, (2S,3R)-3-(5-cyano-2-pyrimidinyl)-N-(5-(1-(difluoromethyl)-1H-pyrazol-3-yl)-4-(2,6-dimethoxyphenyl)-4H-1,2,4-triazol-3-yl)-2-butanesulfonamide]: the pEC50 was 9.39.
The figure for `COc1cccc(OC)c1-n1c(NS(=O)(=O)C[C@H](OC)c2ccc(F)cc2S(C)(=O)=O)nnc1-c1ccn(C)n1` (single isomer, unassigned) [Example 372.0, (R)-N-(4-(2,6-Dimethoxyphenyl)-5-(1-methyl-1H-pyrazol-3-yl)-4H-1,2,4-triazol-3-yl)-2-(4-fluoro-2-(methylsulfonyl)phenyl)-2-methoxyethanesulfonamide or (S)-N-(4-(2,6-dimethoxyphenyl)-5-(1-methyl-1H-pyrazol-3-yl)-4H-1,2,4-triazol-3-yl)-2-(4-fluoro-2-(methylsulfonyl)phenyl)-2-methoxyethanesulfonamide] is 8.85; for `COc1cccc(OC)c1-n1c(NS(=O)(=O)[C@H](C)Cc2ccc(C#N)cn2)nnc1-c1nc(C)cs1` (single isomer, unassigned) [Example 12.0, (2R)-1-(5-Cyano-2-pyridinyl)-N-(4-(2,6-dimethoxyphenyl)-5-(4-methyl-1,3-thiazol-2-yl)-4H-1,2,4-triazol-3-yl)-2-propanesulfonamide or (2S)-1-(5-cyano-2-pyridinyl)-N-(4-(2,6-dimethoxyphenyl)-5-(4-methyl-1,3-thiazol-2-yl)-4H-1,2,4-triazol-3-yl)-2-propanesulfonamide] it is 8.03; for `COc1cccc(OC)c1-n1c(NS(=O)(=O)[C@@H](C)[C@H](OC)c2ncc(Cl)cn2)nnc1-c1ccn(C(F)F)n1` [Example 207.0, (1R,2S)-1-(5-chloro-2-pyrimidinyl)-N-(5-(1-(difluoromethyl)-1H-pyrazol-3-yl)-4-(2,6-dimethoxyphenyl)-4H-1,2,4-triazol-3-yl)-1-methoxy-2-propanesulfonamide] it is 9.89.
In the case of `CCc1onc(-c2nnc(NS(=O)(=O)[C@@H](C)[C@H](OC)c3ncc(Cl)cn3)n2-c2c(OC)cccc2OC)c1C` [Example 519.0] it was 9.49; in that of `COc1cccc(OC)c1-n1c(NS(=O)(=O)[C@@H](C)[C@H](OC)c2ncc(Cl)cn2)nnc1-c1cc(C)[nH]n1` [Example 344.0, (1R,2S)-1-(5-chloro-2-pyrimidinyl)-N-(4-(2,6-dimethoxyphenyl)-5-(5-methyl-1H-pyrazol-3-yl)-4H-1,2,4-triazol-3-yl)-1-methoxy-2-propanesulfonamide], 9.20; in that of `COc1cccc(OC)c1-n1c(NS(=O)(=O)[C@@H](C)[C@H](OC)c2cnc(C)cn2)nnc1-c1cc2n(n1)CCC2` [Example 216.0, (1R,2S)-N-(5-(5,6-dihydro-4H-pyrrolo[1,2-b]pyrazol-2-yl)-4-(2,6-dimethoxyphenyl)-4H-1,2,4-triazol-3-yl)-1-methoxy-1-(5-methyl-2-pyrazinyl)-2-propanesulfonamide], 8.43.
The figure for `COc1cccc(OC)c1-n1c(NS(=O)(=O)CCc2ccc(F)cc2C#N)nnc1-c1csc(C)n1` [Example 148.0, 2-(2-cyano-4-fluorophenyl)-N-(4-(2,6-dimethoxyphenyl)-5-(2-methylthiazol-4-yl)-4H-1,2,4-triazol-3-yl)ethanesulfonamide] is 7.51; for `COc1cccc(OC)c1-n1c(NS(=O)(=O)[C@@H](C)[C@H](OC)c2ncc(Cl)cn2)nnc1-c1n[nH]c2ccc(C)cc12` [Example 418.0, (1R,25)-1-(5-chloropyrimidin-2-yl)-N-(4-(2,6-dimethoxyphenyl)-5-(5-methyl-1H-indazol-3-yl)-4H-1,2,4-triazol-3-yl)-1-methoxypropane-2-sulfonamide] it is 8.26.
Regarding `COc1cccc(OC)c1-n1c(NS(=O)(=O)[C@@H](C)[C@@H](OC(C)C)c2ncc(Cl)cn2)nnc1-c1cnn2c1CCC2` [Example 447.0, (1S,2S)-1-(5-chloropyrimidin-2-yl)-N-(5-(5,6-dihydro-4H-pyrrolo[1,2-b]pyrazol-3-yl)-4-(2,6-dimethoxyphenyl)-4H-1,2,4-triazol-3-yl)-1-isopropoxypropane-2-sulfonamide], the pEC50 was 9.92.
In the case of `COc1cccc(OC)c1-n1c(NS(=O)(=O)[C@@H](C)[C@H](OC)c2ncc(C)cn2)nnc1-c1ncn(C)n1` [Example 204.0, (1R,2S)-N-(4′-(2,6-dimethoxyphenyl)-1-methyl-1H,4′H-3,3′-bi-1,2,4-triazol-5′-yl)-1-methoxy-1-(5-methyl-2-pyrimidinyl)-2-propanesulfonamide] it was 7.28; in that of `COc1ccc(Cl)cc1-n1c(NS(=O)(=O)CCc2ccc(F)cc2)nnc1-c1cccs1` [Example 360.0, N-(4-(5-Chloro-2-methoxyphenyl)-5-(thiophen-2-yl)-4H-1,2,4-triazol-3-yl)-2-(4-fluorophenyl)ethanesulfonamide], 6.71; in that of `COc1cccc(OC)c1-n1c(NS(=O)(=O)[C@@H](C)[C@H](C)c2ncc(F)cn2)nnc1-c1cc(C)[nH]n1` [Example 268.0, (2S,3R)-N-(4-(2,6-dimethoxyphenyl)-5-(5-methyl-1H-pyrazol-3-yl)-4H-1,2,4-triazol-3-yl)-3-(5-fluoro-2-pyrimidinyl)-2-butanesulfonamide], 9.17.
The figure for `COc1cccc(OC)c1-n1c(NS(=O)(=O)C[C@H](O)c2ccc(Cl)cn2)nnc1-c1ccn(C)n1` (mixture of isomers) [Example 363.0, (R)-2-(5-Chloropyridin-2-yl)-N-(4-(2,6-dimethoxyphenyl)-5-(1-methyl-1H-pyrazol-3-yl)-4H-1,2,4-triazol-3-yl)-2-hydroxyethanesulfonamide and (S)-2-(5-chloropyridin-2-yl)-N-(4-(2,6-dimethoxyphenyl)-5-(1-methyl-1H-pyrazol-3-yl)-4H-1,2,4-triazol-3-yl)-2-hydroxyethanesulfonamide] is 8.82.
In the case of `COc1cccc(OC)c1-n1c(NS(=O)(=O)[C@@H](C)[C@H](OC)c2ncc(Cl)cn2)nnc1-c1cnn2c1CCC2` [Example 488.0, (1R,2S)-1-(5-chloropyrimidin-2-yl)-N-(5-(5,6-dihydro-4H-pyrrolo[1,2-b]pyrazol-3-yl)-4-(2,6-dimethoxyphenyl)-4H-1,2,4-triazol-3-yl)-1-methoxypropane-2-sulfonamide], the pEC50 is 9.70.
